Data on 23 compounds can be found in patent US10450318B2, “CXCR4 receptor antagonists” (BRISTOL-MYERS SQUIBB COMPANY, priority 2015, dated 2019).

For this assay, the target named is T1, CXCR4 receptors (Homo sapiens, UniProt P61073).
T1 construct: expressing endogenous CXCR4 receptors; endogenous in cells; host or cells: CCRF-CEM (human T lymphoblast cells)
The assay is described as follows: CXCR4-CEM calcium flux assay, antagonist mode (inhibition of SDF-1α-induced calcium flux). It is filed as cell-based. Particulars: inhibition of calcium flux induced by 4 nM SDF-1α in CCRF-CEM cells. As to the method:
Exemplary compounds of the invention were tested for their ability to induce or inhibit calcium flux in CCRF-CEM cells. […] CXCR4-CEM Calcium Flux Assays. […] The cells were then equilibrated to room temperature for 30 minutes before assay. […] The serially diluted compounds were diluted to working concentrations with the same assay buffer to 0.5% DMSO. […] Activity of the compounds to induce calcium flux was monitored by FDSS in the “agonist mode” for 90 sec. For “antagonist mode” assessment, the cells are subsequently incubated for 25 min at room temperature. SDF-1α (R&D System Cat#350-NS/CF) was then added at a final concentration of 4 nM to stimulate the cells. Inhibition of SDF-1α-induced calcium flux was monitored by FDSS6000 for 90 sec. […] After correcting for background, EC50 values were determined. […] Inhibition data for the test compound over a range of concentrations was plotted as percentage inhibition of the test compound as compared to an internal control compound.
For orientation: Calcium flux is commonly read through the fluorescence of an indicator in the cells.

One may read the IC50 as the midpoint of a concentration-inhibition curve.

Each structure is given as a SMILES string.

T1 sequence (P61073 whole entry): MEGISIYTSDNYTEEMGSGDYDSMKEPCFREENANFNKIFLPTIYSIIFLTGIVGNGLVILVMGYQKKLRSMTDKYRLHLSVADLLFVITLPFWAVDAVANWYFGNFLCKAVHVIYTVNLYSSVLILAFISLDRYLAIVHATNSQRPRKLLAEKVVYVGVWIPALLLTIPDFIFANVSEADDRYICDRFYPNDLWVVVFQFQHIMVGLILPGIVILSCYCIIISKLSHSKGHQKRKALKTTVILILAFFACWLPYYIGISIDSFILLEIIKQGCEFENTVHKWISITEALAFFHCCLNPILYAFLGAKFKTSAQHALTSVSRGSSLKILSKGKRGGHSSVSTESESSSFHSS

With `CN(Cc1cn2c(N3CCN(CCC(F)(F)F)CC3)nccc2n1)[C@H]1CCCc2cccnc21` [Example 36, (S)-N-methyl-N-({5-[4-(3,3,3-trifluoropropyl)piperazin-1-yl]imidazo[1,2-c]pyrimidin-2-yl}methyl)-5,6,7,8-tetrahydroquinolin-8-amine], the IC50 is 30700 nM.
Under `CN(Cc1cn2c(N3CCN(C4CCC4)CC3)nccc2n1)[C@H]1CCCc2cccnc21` [Example 30, (S)-N-{[5-(4-cyclobutylpiperazin-1-yl)imidazo[1,2-c]pyrimidin-2-yl]methyl}-N-methyl-5,6,7,8-tetrahydroquinolin-8-amine] stands 190 nM.
As for `CC(C)S(=O)(=O)N1CCN(c2nccc3nc(CN(C)[C@H]4CCCc5cccnc54)cn23)CC1` [Example 40, (S)-N-methyl-N-({5-[4-(propane-2-sulfonyl)piperazin-1-yl]imidazo[1,2-c]pyrimidin-2-yl}methyl)-5,6,7,8-tetrahydroquinolin-8-amine], the IC50 is 14400 nM.
`CN(Cc1cn2c(N3CC4CCNC4C3)nccc2n1)[C@H]1CCCc2cccnc21` (stereo partly drawn) [Example 93, (8S)-N-((5-(hexahydropyrrolo[3,4-b]pyrrol-5(1H)-yl)imidazo[1,2-c]pyrimidin-2-yl)methyl)-N-methyl-5,6,7,8-tetrahydroquinolin-8-amine]: the IC50 is 27 nM.
Under `CN(Cc1cn2c(N3CCN(Cc4nccn4C)CC3)nccc2n1)[C@H]1CCCc2cccnc21` [Example 51, (S)-N-methyl-N-[(5-{4-[(1-methyl-1H-imidazol-2-yl)methyl]piperazin-1-yl}imidazo[1,2-c]pyrimidin-2-yl)methyl]-5,6,7,8-tetrahydroquinolin-8-amine] stands 6 nM.
Under `CN(Cc1cn2c(N3CCNCC3)nccc2n1)[C@H]1CCOc2cccnc21` [Example 70, (S)—N-Methyl-N-((5-(piperazin-1-yl)imidazo[1,2-c]pyrimidin-2-yl)methyl)-3,4-dihydro-2H-pyrano[3,2-b]pyridin-4-amine] stands 4.2 nM; under `CN(Cc1cn2c(N3CCN(Cc4nccs4)CC3)nccc2n1)[C@H]1CCCc2cccnc21` [Example 67, (S)-N-methyl-N-({5-[4-(1,3-thiazol-2-ylmethyl)piperazin-1-yl]imidazo[1,2-c]pyrimidin-2-yl}methyl)-5,6,7,8-tetrahydroquinolin-8-amine], 42 nM.
Under `CC(CCN1CCN(c2nccc3nc(CN(C)[C@H]4CCCc5cccnc54)cn23)CC1)c1ccccc1` (stereo partly drawn) [Example 65, (S)-N-methyl-N-({5-[4-(3-phenylbutyl)piperazin-1-yl]imidazo[1,2-c]pyrimidin-2-yl}methyl)-5,6,7,8-tetrahydroquinolin-8-amine] stands 16 nM; under `CN(Cc1cn2c(N3CC4CCCNC4C3)nccc2n1)[C@H]1CCCc2cccnc21` (single isomer, unassigned) [Example 95], 24 nM; under `CCNC(=O)N1CCN(c2nccc3nc(CN(C)[C@H]4CCCc5cccnc54)cn23)CC1` [Example 14, (S)—N-ethyl-4-(2-((methyl(5,6,7,8-tetrahydroquinolin-8-yl)amino)methyl)imidazo[1,2-c]pyrimidin-5-yl)piperazine-1-carboxamide], 1230 nM.
For `CN(Cc1cn2c(N3CC4CCCNC4C3)nccc2n1)[C@H]1CCCc2cccnc21` (single isomer, unassigned) [Example 96], the IC50 was 220 nM.
Consider `CN(Cc1cn2c(N3CCN4CCOCC4C3)nccc2n1)[C@H]1CCCc2cccnc21` (single isomer, unassigned) [Example 91], for which the IC50 is more than 30000 nM.
For the compound `CN(Cc1cn2c(N3CCN(Cc4cccs4)CC3)nccc2n1)[C@H]1CCCc2cccnc21` [Example 26, (S)-N-methyl-N-({5-[4-(thiophen-2-ylmethyl)piperazin-1-yl]imidazo[1,2-c]pyrimidin-2-yl}methyl)-5,6,7,8-tetrahydroquinolin-8-amine], the IC50 came to 14 nM.
Under `CCN1CCN(c2nccc3nc(CN(C)[C@H]4CCCc5cccnc54)cn23)CC1` [Example 35, (S)-N-{[5-(4-ethylpiperazin-1-yl)imidazo[1,2-c]pyrimidin-2-yl]methyl}-N-methyl-5,6,7,8-tetrahydroquinolin-8-amine] stands 510 nM; under `CC(CN1CCN(c2nccc3nc(CN(C)[C@H]4CCCc5cccnc54)cn23)CC1)c1ccccc1` (stereo partly drawn) [Example 46, (S)-N-methyl-N-({5-[4-(2-phenylpropyl)piperazin-1-yl]imidazo[1,2-c]pyrimidin-2-yl}methyl)-5,6,7,8-tetrahydroquinolin-8-amine], 7.3 nM; under `CN1CCN(c2nccc3nc(CN(C)[C@H]4CCCc5cccnc54)c(CO)n23)CC1` [Example 7, (S)-(2-((Methyl(5,6,7,8-tetrahydroquinolin-8-yl)amino)methyl)-5-(4-methylpiperazin-1-yl)imidazo[1,2-c]pyrimidin-3-yl)methanol], 2.4 nM.
For the compound `CN(Cc1cn2c(N3CCN(CCN)CC3)nccc2n1)[C@H]1CCCc2cccnc21` [Example 16, (S)—N-((5-(4-(2-Aminoethyl)piperazin-1-yl)imidazo[1,2-c]pyrimidin-2-yl)methyl)-N-methyl-5,6,7,8-tetrahydroquinolin-8-amine], the IC50 stood at 540 nM.
Under `C[C@@H]1CN(c2nccc3nc(CN(C)[C@H]4CCCc5cccnc54)cn23)C[C@H](C)N1C` [Example 97, (S)—N-Methyl-N-((5-((3S,5R)-3,4,5-trimethylpiperazin-1-yl)imidazo[1,2-c]pyrimidin-2-yl)methyl)-5,6,7,8-tetrahydroquinolin-8-amine] stands 480 nM; under `CN(C)c1ccc(CN2CCN(c3nccc4nc(CN(C)[C@H]5CCCc6cccnc65)cn34)CC2)cc1` [Example 60, (8S)-N-{[5-(4-{[4-(dimethylamino)phenyl]methyl}piperazin-1-yl)imidazo[1,2-c]pyrimidin-2-yl]methyl}-N-methyl-5,6,7,8-tetrahydroquinolin-8-amine], 7.6 nM.
Under `COc1nc(N2CCN(C)CC2)n2cc(CN(C)[C@H]3CCCc4cccnc43)nc2c1CO` [Example 106, (S)-(7-Methoxy-2-((methyl(5,6,7,8-tetrahydroquinolin-8-yl)amino)methyl)-5-(4-methylpiperazin-1-yl)imidazo[1,2-c]pyrimidin-8-yl)methanol] stands 370 nM.
Under `COc1cc2nc(CN(C)[C@H]3CCCc4cccnc43)cn2c(N2CCNCC2)n1` [Example 104, (S)—N-((7-methoxy-5-(piperazin-1-yl)imidazo[1,2-c]pyrimidin-2-yl)methyl)-N-methyl-5,6,7,8-tetrahydroquinolin-8-amine] stands 190 nM.
For `CN(Cc1cn2c(N3CCN(Cc4cccc(O)c4)CC3)nccc2n1)[C@H]1CCCc2cccnc21` [Example 69, 3-({4-[2-({methyl[(S)-5,6,7,8-tetrahydroquinolin-8-yl]amino}methyl)imidazo[1,2-c]pyrimidin-5-yl]piperazin-1-yl}methyl)phenol], the IC50 came to 3.8 nM.
Under `CN(Cc1cn2c(N3CCN(CCF)CC3)nccc2n1)[C@H]1CCCc2cccnc21` [Example 12, (S)—N-((5-(4-(2-Fluoroethyl)piperazin-1-yl)imidazo[1,2-c]pyrimidin-2-yl)methyl)-N-methyl-5,6,7,8-tetrahydroquinolin-8-amine] stands 54 nM.
